Measured values from article PMC6207715, “Determination of extended substrate specificity of the MALT1 as a strategy for the design of potent substrates and activity-based probes” (Scientific Reports, 2018).
Read-outs that look alike come from different tables or passages of the source. Non-standard residues stand in square brackets, D forms with d. *: point of attachment. ACC = NC(=O)Cc1cc(=O)oc2cc(N*)ccc12; Abu = CC[C@H](N)C(=O)O

Assays:
Type in all cases: biochemical
MALT1 [1] = target: T1, MALT1 (Homo sapiens, UniProt Q9UDY8); test: Kinetic assay of ACC fluorogenic substrates (kcat, Km, kcat/Km); settings: 37 °C; 50 mM HEPES, 100 mM NaCl, 0.9 M sodium citrate, 10 mM DTT, pH 7.5; substrate 3.90-150 μM; ACC fluorescence 355/460 nm; average of three measurements
T1 sequence (Q9UDY8 1-824): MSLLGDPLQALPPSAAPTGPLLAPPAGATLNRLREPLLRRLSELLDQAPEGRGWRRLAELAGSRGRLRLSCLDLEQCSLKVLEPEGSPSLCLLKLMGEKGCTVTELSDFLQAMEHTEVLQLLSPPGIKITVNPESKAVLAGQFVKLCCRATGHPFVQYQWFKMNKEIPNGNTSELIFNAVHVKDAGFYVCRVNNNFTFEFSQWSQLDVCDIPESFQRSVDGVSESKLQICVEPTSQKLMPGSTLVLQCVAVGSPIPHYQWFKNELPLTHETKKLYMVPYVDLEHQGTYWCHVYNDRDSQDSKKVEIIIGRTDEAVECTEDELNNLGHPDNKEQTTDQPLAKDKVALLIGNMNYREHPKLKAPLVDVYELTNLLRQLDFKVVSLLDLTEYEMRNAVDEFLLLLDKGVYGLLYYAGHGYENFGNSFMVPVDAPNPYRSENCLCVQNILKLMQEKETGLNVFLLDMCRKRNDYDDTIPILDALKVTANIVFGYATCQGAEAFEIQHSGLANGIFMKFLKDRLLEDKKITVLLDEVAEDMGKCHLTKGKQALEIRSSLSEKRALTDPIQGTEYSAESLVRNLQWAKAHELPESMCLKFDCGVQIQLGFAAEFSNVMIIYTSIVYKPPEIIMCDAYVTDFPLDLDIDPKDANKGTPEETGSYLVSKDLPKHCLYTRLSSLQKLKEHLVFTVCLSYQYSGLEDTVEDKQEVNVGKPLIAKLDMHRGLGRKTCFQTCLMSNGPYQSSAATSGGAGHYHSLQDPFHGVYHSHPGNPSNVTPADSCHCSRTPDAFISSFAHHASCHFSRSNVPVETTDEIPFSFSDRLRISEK
Protocol: Figure 2 MALT1 substrate activity. Panel a. kcat/Km values for MALT1 substrates compared with that of the reference substrate (ALVSR). MALT1 was incubated at 37 °C for 30 minutes and added to the wells containing the substrate at varying concentrations. Relative fluorescence units were measured over time at excitation/emission wavelengths of 355/460 nm for at least 10 minutes. The data represent averages of three separate measurements, and error bars represent standard deviations. Panel b. Structure of our best (lower panel) and the reference (upper panel) MALT1 fluorogenic substrate.
(§1) All kinetic assays were performed with a Spectra Max Gemini XPS spectrofluorimeter (Molecular Devices) and 96-well Corning plates. The measurement characteristics were as follows: 37 °C, excitation/emission wavelength of 355/460 nm, cutoff of 455 nm, and varying concentrations of substrates and enzyme. The assay buffer was prepared at 23 °C and contained 50 mM HEPES (2-[4-(2-hydroxyethyl)piperazin-1-yl]ethanesulfonic acid), 100 mM NaCl, 0.9 M sodium citrate and 10 mM dithiothreitol (DTT) (pH 7.5). MALT1^FL or MALT1^CD were preincubated for 30 minutes at 37 °C before being added to wells containing substrate. Next, the increase in fluorescence was recorded over the time. Only the linear portions of the curves were used for calculations. The kcat and Km values were calculated using GraphPad Prism and Microsoft Excel software. All measurements were repeated three times, and the data presented are averages of these replicates. […]
was carried out after each coupling and Fmoc deprotection step. The N terminus was protected with an acetyl group using 5 eq AcOH, 5 eq HBTU, and 5 eq DIPEA in DMF.
After solvent removal, the resin was washed six times with DMF in order to remove excess reagents, three times with DCM, and three times with MeOH and then dried over P2O5 and cleaved from the resin with a TFA/TIPS/H2O mixture (%, v/v/v, 95:2.5:2.5).
The crude product was purified by HPLC and lyophilized. The purity of each substrate was confirmed by analytical HPLC, and each substrate was analyzed using HRMS.
(§2) Substrates were dissolved in peptide-grade DMSO to a concentration of 20 mM and stored at -80°C until use.
(§3) Calculation of kcat, Km and kcat/Km values
(§4) Kinetic parameters were calculated under the same conditions as the library with slight modification. The total reaction volume in each well was 100 μL. The substrate and enzyme concentrations used ranged from 3.90 μM to 150 μM and 40 μM, respectively.
(§5) The increase in relative fluorescence units was monitored for 20-30 minutes, and only the linear parts of the curves were used to determine the rate of the reaction. The kcat and Km values were calculated using GraphPad Prism software. All measurements were repeated three times using the appropriate concentration of the enzyme, and the data presented are averages of these repetitions.

MALT1^FL [2] = target: T2, MALT1^FL (Homo sapiens, UniProt Q9UDY8); test: MALT1 labeling with PKG105, SDS-PAGE fluorescence scan; settings: 100 nM enzyme; probe 500, 250, 125 nM; 30 minutes, 37 °C; gel scan 700 nm
T2 construct: treating full-length MALT1 (MALT1^FL), the MALT1 catalytic domain (MALT1^CD)
T2 sequence (Q9UDY8 1-824): T1 sequence (Q9UDY8 1-824)
Protocol: (§6) MALT1^FL, MALT1^CD or MALT1^C/A at 100 nM were incubated with PKG105 at three different concentrations: 500 nM, 250 nM and 125 nM for 30 minutes at 37 °C. As a control, MALT1^FL without the probe was incubated in the assay buffer. Samples were denatured in 3 × SDS-loading buffer for 5 minutes at 95 °C. SDS-PAGE was performed under reducing conditions for 37 minutes at 165 V. The fluorescence signal in the gel was measured using a Li-Cor (Odyssey®) instrument at a wavelength of 700 nm.

MALT1^C/A = test: as above; settings: 100 nM enzyme; probe 500, 250, 125 nM; 30 minutes, 37 °C; gel scan 700 nm
Protocol: as §6

MALT1^CD [3] = target: T3, MALT1^CD (Homo sapiens, UniProt Q9UDY8); test: as above; settings: 100 nM enzyme; probe 500, 250, 125 nM; 30 minutes, 37 °C; gel scan 700 nm
T3 construct: the MALT1 catalytic domain (MALT1^CD)
T3 sequence (Q9UDY8 348-562 limits assumed): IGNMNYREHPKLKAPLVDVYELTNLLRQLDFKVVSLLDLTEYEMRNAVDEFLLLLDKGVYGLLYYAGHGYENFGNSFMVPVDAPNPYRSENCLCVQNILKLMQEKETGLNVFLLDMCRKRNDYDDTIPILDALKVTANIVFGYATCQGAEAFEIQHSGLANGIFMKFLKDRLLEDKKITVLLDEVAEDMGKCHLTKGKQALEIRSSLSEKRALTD
Protocol: as §6

[4] = system: MALT1 in RAW 264.7 cell lysates; test: Labeling of active MALT1 in RAW 264.7 cell lysates; settings: RAW 264.7 lysates; probe 8 to 500 nM; 30 minutes, 37 °C; gel scan 700 nm
Protocol: Figure 3 Probe to detect active MALT1. Panel a. Structure of the MALT1 probe (PKG105). Panel b. RAW 264.7 cell lysates were incubated with PKG105 at various concentrations. As a control, lysates were pretreated with mepazine, followed by incubation with probe. Lysates that were not treated with mepazine were also used. SDS-PAGE was performed at 165 V. Fluorescence was scanned using the 700 nm channel (LI-COR). Gels are representative of at least two replicates. TEXT PRINTED IN THE PICTURE: (a) PKG105: kobs/I = 92,000 M^-1s^-1
Twenty-five microliters of RAW 264.7 cell lysates (from 5 * 10^6 cells/mL) were incubated with PKG105 at concentrations ranging from 8 to 500 nM. As controls, cells that were not incubated with probe or cells that were pretreated with 1 µL of 10 mM mepazine were treated with 500 nM PKG105. The lysates were incubated with the probe for 30 minutes at 37 °C, followed by denaturation in 3 × SDS-loading buffer for 5 minutes at 95 °C. SDS-PAGE was performed under reducing conditions for 37 minutes at 165 V. The fluorescence signal in the gel was measured using a Li-Cor (Odyssey®) at a wavelength of 700 nm.

MALT1 [5] = target: T1, MALT1; test: Inhibition kinetics of activity-based probe (kobs/I)
MALT1^FL [6] = target: T2, MALT1^FL; test: Kinetic assay of IQF substrates, full-length enzyme; settings: IQF substrate, ACC/Lys(Dnp) pair; 37 °C, assay buffer pH 7.5; 355/460 nm; average of three
Protocol: as §1, §2, §3, §4, §5

MALT1^CD [7] = target: T3, MALT1^CD; test: Kinetic assay of IQF substrates, catalytic domain; settings: IQF substrate, ACC/Lys(Dnp) pair; 37 °C, assay buffer pH 7.5; 355/460 nm; average of three
Protocol: as §1, §2, §3, §4, §5

Row | Substance | Km (MALT1 [1]) [µM] | kcat (MALT1 [1]) [s⁻¹] | kcat/Km, MALT1^FL (MALT1^FL [6]) | kcat/Km, MALT1^CD (MALT1^CD [7]) | further results
1 | Ac-[Abu]LVSR-{ACC} (SMILES CC[C@H](NC(C)=O)C(=O)N[C@@H](CC(C)C)C(=O)N[C@H](C(=O)N[C@@H](CO)C(=O)N[C@@H](CCCNC(=N)N)C(=O)Nc1ccc2c(CC(N)=O)cc(=O)oc2c1)C(C)C) [Ac-Abu-LVSR-ACC] | 22.15 ± 0.01 | 0.19 ± 0.0295 | – | – | –
2 | Ac-[dA]LVSR-{ACC} (SMILES CC(=O)N[C@H](C)C(=O)N[C@@H](CC(C)C)C(=O)N[C@H](C(=O)N[C@@H](CO)C(=O)N[C@@H](CCCNC(=N)N)C(=O)Nc1ccc2c(CC(N)=O)cc(=O)oc2c1)C(C)C) [Ac-D-Ala-LVSR-ACC] | 24.4 ± 6.97 | 0.076 ± 0.034 | – | – | –
3 | Ac-[dV]LVSR-{ACC} (SMILES CC(=O)N[C@@H](C(=O)N[C@@H](CC(C)C)C(=O)N[C@H](C(=O)N[C@@H](CO)C(=O)N[C@@H](CCCNC(=N)N)C(=O)Nc1ccc2c(CC(N)=O)cc(=O)oc2c1)C(C)C)C(C)C) [Ac-D-Val-LVSR-ACC] | 19.2 ± 2.5 | 0.15 ± 0.012 | – | – | –
4 | Cy5-Phe(guan)-Leu-Val-Pro-Arg-AOMK [PKG105] | – | – | – | – | labeling of MALT1^FL by probe (MALT1^FL [2]): detected enzyme activity; labeling of MALT1^C/A catalytic mutant by probe (MALT1^C/A): no labeling was observed; labeling of MALT1^CD by probe (MALT1^CD [3]): detected enzyme activity; detection of active MALT1 in cell lysates by probe [4]: detected active MALT1; kobs/I (MALT1 [5]): 92,000 s^−1M^−1; kobs/I (MALT1 [5]; printed in Figure 3a): 92,000 M^-1s^-1; kobs/I relative to the best MALT1 inhibitor in the literature (MALT1 [5]; times higher than 9,300 s^−1M^−1): approximately 10 times
5 | H2N-ACC-Ahx-A-L-V-S-R–G-Abu-K(Dnp)G-OH [Substrate M2] | – | – | 5.5 * 10^3 ± 291 M^−1s^−1 | 2.6 * 10^3 ± 38 M^−1s^−1 | –
6 | H2N-ACC-Ahx-A-L-V-S-R–G-Nva-K(Dnp)G-OH [Substrate M1] | – | – | 4.8 * 10^3 ± 362 M^−1s^−1 | 3.5 * 10^3 ± 165 M^−1s^−1 | –
7 | H2N-ACC-Ahx-A-L-V-S-R–G-Thr-K(Dnp)G-OH [Substrate M3] | – | – | 6.3 * 10^3 ± 311 M^−1s^−1 | 2.8 * 10^3 ± 101 M^−1s^−1 | –
